pEC50: −log10 of the molar value. Entries after “also recorded” stand apart in the source; their conditions may differ. Read-outs that look alike come from different tables or passages of the source.
Experiments:
SARS-CoV-2 virus [1] = type: cell-based
SARS-CoV-2 virus [2] = type: cell-based; remark: listed apart in the source
SARS-CoV-2 virus [3] = type: cell-based; conditions: read-out: Reduction in viral RNA copy (EC50)
SARS-CoV-2 virus [4] = type: cell-based; conditions: read-out: Reduction in infectious virus (EC50)

Row | Compound | CPE inhibition (lowest concentration of the compound with 100% CPE inhibition) (SARS-CoV-2 virus [1]) [µM] | Antiviral effect against SARS-CoV-2 virus in vitro (in words) (SARS-CoV-2 virus [2]) | also measured
1 | CN[C@H]1C(=O)N[C@@H]2Cc3ccc(cc3)Oc3cc4cc(c3O[C@@H]3O[C@H](C(=O)O)[C@@H](O)[C@H](O)[C@H]3NC(=O)CCCCCCCCC(C)C)Oc3ccc(cc3Cl)[C@@H](O)[C@@H]3NC(=O)[C@H](NC(=O)[C@@H]4NC(=O)[C@@H](NC2=O)c2cc(cc(O)c2Cl)Oc2cc1ccc2O)c1ccc(O)c(c1)-c1c(O[C@H]2O[C@H](CO)[C@@H](O)[C@H](O)[C@@H]2O)cc(O)cc1[C@@H](C(=O)NCCCN(C)C)NC3=O.Cl [Dalbavancin hydrochloride] | >100 |  | 
2 | NC(=O)c1nc(F)c[nH]c1=O [Favipiravir] |  | no apparent antiviral effect; also recorded: did not inhibit viral replication | Inhibition of SARS-CoV-2 (in words) (SARS-CoV-2 virus [2]): no inhibition
3 | Nc1nc(F)nc2c1ncn2[C@@H]1O[C@H](COP(=O)(O)O)[C@@H](O)[C@@H]1O [Fludarabine phosphate] |  | did not inhibit viral replication | 
4 | Nc1ncnc2c([C@@H]3N[C@H](CO)[C@@H](O)[C@H]3O)c[nH]c12 [Galidesivir] |  | did not inhibit viral replication | 
5 | CN[C@H](CC(C)C)C(=O)N[C@H]1C(=O)N[C@@H](CC(N)=O)C(=O)N[C@H]2C(=O)N[C@H]3C(=O)N[C@H](C(=O)N[C@H](C(=O)O)c4cc(O)cc(O)c4-c4cc3ccc4O)[C@H](O[C@H]3C[C@](C)(N)[C@@H](O)[C@H](C)O3)c3ccc(c(Cl)c3)Oc3cc2cc(c3O[C@@H]2O[C@H](CO)[C@@H](O)[C@H](O)[C@H]2O[C@H]2C[C@](C)(NCc3ccc(-c4ccc(Cl)cc4)cc3)[C@@H](O)[C@H](C)O2)Oc2ccc(cc2Cl)[C@H]1O.O=P(O)(O)O.O=P(O)(O)O [Oritavancin diphosphate] | >100 |  | 
6 | CCC(CC)O[C@@H]1C=C(C(=O)O)C[C@H](N)[C@H]1NC(C)=O [Oseltamivir carboxylate] | >100 | no apparent antiviral effect | pEC50 (SARS-CoV-2 virus [3]): < 4.00; CC50 (Vero E6 cells): > 100 µM; pEC50 (SARS-CoV-2 virus [4]): < 4.00
7 | [N-]=[N+]=N[C@]1(CO)O[C@@H](n2ccc(N)nc2=O)[C@H](O)[C@@H]1O [R-1479] | >100 | did not inhibit viral replication | CC50 (Vero E6 cells): > 100 µM
8 | NC(=O)c1ncn([C@@H]2O[C@H](CO)[C@@H](O)[C@H]2O)n1 [Ribavirin] |  | no apparent antiviral effect; also recorded: did not inhibit viral replication | Inhibition of SARS-CoV-2 (in words) (SARS-CoV-2 virus [2]): no inhibition
9 | C[C@H](Cn1cnc2c(N)ncnc21)OCP(=O)(O)O [Tenofovor] |  | did not inhibit viral replication | 

Reference: article PMC7127386 (Antiviral Research, 2020)
